Source: PubChem BioAssay AID282 (DTP/NCI, 2004)
Several values for one entry are separate records, joined by “and”; a condition that tells them apart may be missing. Identical values can stand only once. Toxic doses and inconclusive results are not listed.

Tested on: BDF1 mice, L1210 terephthalanilide-resistant leukemia ip, survival T/C
Assay: NCI In Vivo Anticancer Drug Screen. Data for tumor model L1210 Leukemia resistant to A Terephthalanilide; NSC 38280 (intraperitoneal) in B6D2F1 (BDF1) mice
Settings: endpoint: mean survival time, higher = longer survival
Experimental: The antitumor activity of compounds was measured in mice bearing transplantable tumors. Survival or tumor size were measured and the results are expressed as the measurement made in the treated group (T) divided by the measurement made in the vehicle treated control group (C). The tumor model used in this assay is L1210 Leukemia resistant to A Terephthalanilide; NSC 38280 (intraperitoneal) in B6D2F1 (BDF1) mice

[1] = dose: 2.5 mg/kg/injection, schedule: Q01DX010 (ip), vehicle: saline
[2] = dose: 10.0 mg/kg/injection, schedule: Q01DX010 (ip), vehicle: saline
[3] = dose: 20.0 mg/kg/injection, schedule: Q01DX010 (ip), vehicle: saline
[4] = dose: 2.0 mg/kg/injection, schedule: Q01DX010 (ip), vehicle: saline
[5] = dose: 4.0 mg/kg/injection, schedule: Q01DX010 (ip), vehicle: saline
[6] = dose: 8.0 mg/kg/injection, schedule: Q01DX010 (ip), vehicle: saline
[7] = dose: 12.5 mg/kg/injection, schedule: Q01DX Z (ip), vehicle: carboxymethylcellulose (CMC)
[8] = dose: 16.0 mg/kg/injection, schedule: Q01DX010 (ip), vehicle: saline
[9] = dose: 25.0 mg/kg/injection, schedule: Q01DX Z (ip), vehicle: carboxymethylcellulose (CMC)
[10] = dose: 32.0 mg/kg/injection, schedule: Q01DX010 (ip), vehicle: saline
[11] = dose: 40.0 mg/kg/injection, schedule: Q01DX010 (ip), vehicle: saline
[12] = dose: 50.0 mg/kg/injection, schedule: Q01DX Z (ip), vehicle: carboxymethylcellulose (CMC)
[13] = dose: 100.0 mg/kg/injection, schedule: Q01DX Z (ip), vehicle: carboxymethylcellulose (CMC)
[14] = dose: 5.0 mg/kg/injection, schedule: Q01DX010 (ip), vehicle: saline

CC[n+]1ccccc1-c1ccc(NC(=O)c2ccc(C(=O)Nc3ccc(-c4ccccn4)cc3)cc2)cc1
T/C [1]: 115 % of control | T/C [2]: 119 % of control | T/C [3]: 92 % of control

CC(CCC(C)OS(C)(=O)=O)OS(C)(=O)=O (centres undefined)
T/C [4]: 102 % of control | T/C (dose: 2.5 mg/kg/injection, schedule: Q01DX Z (ip), vehicle: carboxymethylcellulose (CMC)): 94 % of control | T/C [5]: 95 % of control and 100 % of control | T/C (dose: 5.0 mg/kg/injection, schedule: Q01DX Z (ip), vehicle: carboxymethylcellulose (CMC)): 97 % of control | T/C (dose: 7.5 mg/kg/injection, schedule: Q01DX Z (ip), vehicle: carboxymethylcellulose (CMC)): 103 % of control | T/C [6]: 100 % of control | T/C (dose: 10.0 mg/kg/injection, schedule: Q01DX Z (ip), vehicle: carboxymethylcellulose (CMC)): 111 % of control | T/C [7]: 109 % of control | T/C [8]: 100 % of control and 112 % of control | T/C [9]: 88 % of control | T/C [10]: 110 % of control

CC1CCOS(=O)O1 (centres undefined)
T/C [2]: 95 % of control | T/C [3]: 86 % of control | T/C (dose: 37.5 mg/kg/injection, schedule: Q01DX Z (ip), vehicle: saline): 112 % of control | T/C [11]: 87 % of control | T/C (dose: 75.0 mg/kg/injection, schedule: Q01DX Z (ip), vehicle: saline): 120 % of control | T/C (dose: 100.0 mg/kg/injection, schedule: Q01DX Z (ip), vehicle: saline): 103 % of control | T/C (dose: 150.0 mg/kg/injection, schedule: Q01DX Z (ip), vehicle: saline): 87 % of control

c1ccc(CNc2ncnc3[nH]ncc23)cc1
T/C [6]: 102 % of control and 107 % of control | T/C [7]: 97 % of control | T/C [8]: 103 % of control and 114 % of control | T/C [9]: 109 % of control | T/C [10]: 107 % of control | T/C (dose: 37.5 mg/kg/injection, schedule: Q01DX Z (ip), vehicle: carboxymethylcellulose (CMC)): 116 % of control | T/C [12]: 97 % of control | T/C (dose: 64.0 mg/kg/injection, schedule: Q01DX010 (ip), vehicle: saline): 99 % of control and 103 % of control

CCN(CC)c1ccc2cc3ccc(=[N+](CC)CC)cc-3oc2c1
T/C (dose: 1.0 mg/kg/injection, schedule: Q01DX010 (ip), vehicle: saline): 98 % of control | T/C [4]: 91 % of control | T/C [5]: 96 % of control

CN(C)C(=S)N=Nc1c(O)[nH]c2ccccc12
T/C [9]: 90 % of control | T/C [12]: 98 % of control | T/C [13]: 89 % of control

O=c1[nH]cc(F)c(=O)[nH]1
T/C (dose: 0.37 mg/kg/injection, schedule: Q01DX Z (ip), vehicle: carboxymethylcellulose (CMC)): 102 % of control | T/C (dose: 0.75 mg/kg/injection, schedule: Q01DX Z (ip), vehicle: carboxymethylcellulose (CMC)): 114 % of control | T/C (dose: 1.5 mg/kg/injection, schedule: Q01DX Z (ip), vehicle: carboxymethylcellulose (CMC)): 117 % of control | T/C [14]: 119 % of control | T/C (dose: 6.25 mg/kg/injection, schedule: Q01DX Z (ip), vehicle: carboxymethylcellulose (CMC)): 175 % of control | T/C [2]: 119 % of control | T/C [7]: 185 % of control | T/C [3]: 181 % of control and 198 % of control | T/C [9]: 227 % of control | T/C [11]: 104 % of control and 110 % of control | T/C [13]: 94 % of control and 102 % of control

CC[n+]1c(-c2ccccc2)c2cc(N)ccc2c2ccc(N)cc21
T/C (dose: 1.25 mg/kg/injection, schedule: Q01DX010 (ip), vehicle: saline): 100 % of control | T/C [1]: 90 % of control | T/C [14]: 101 % of control | T/C [2]: 95 % of control

CS(=O)(=O)OCCCCOS(C)(=O)=O
T/C (dose: 6.25 mg/kg/injection, schedule: Q01DX010 (ip), vehicle: saline): 98 % of control and 103 % of control | T/C (dose: 12.5 mg/kg/injection, schedule: Q01DX010 (ip), vehicle: saline): 100 % of control and 102 % of control | T/C (dose: 25.0 mg/kg/injection, schedule: Q01DX010 (ip), vehicle: saline): 93 % of control and 102 % of control | T/C (dose: 50.0 mg/kg/injection, schedule: Q01DX010 (ip), vehicle: saline): 98 % of control and 100 % of control
